# Data: PubChem BioAssay AID2060611 (Molecular Pharmacology Branch, DTP, NCI, 2025)
# System: 628569-122-R-J1-PDC complex spheroid viability
# Assay: Anticancer human tumor 628569-122-R-J1-PDC patient-derived head and neck squamous carcinoma cell line growth inhibition [CLK]
# Conditions: for IC50: curve of first compound; for viability, T/C: stronger effect = lower value
# Procedure, shortened: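 Multi-cell-type spheroids combined patient-derived tumor cells with HUVEC endothelial cells and human mesenchymal stem cells. Paired agents were dosed in half-log steps down from about clinical Cmax, or from 10 microM where Cmax was unknown.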
# [1] = second compound 0.0316 µM, first compound 0.00949 µM
# [2] = second compound 0.0316 µM, first compound 0.03 µM
# [3] = second compound 0.0316 µM, first compound 0.0949 µM
# [4] = second compound 0.0316 µM, first compound 0.3 µM
# [5] = second compound 0.1 µM, first compound 0.00949 µM
# [6] = second compound 0.1 µM, first compound 0.03 µM
# [7] = second compound 0.1 µM, first compound 0.0949 µM
# [8] = second compound 0.1 µM, first compound 0.3 µM
# [9] = second compound 0.316 µM, first compound 0.00949 µM
# [10] = second compound 0.316 µM, first compound 0.03 µM
# [11] = second compound 0.316 µM, first compound 0.0949 µM
# [12] = second compound 0.316 µM, first compound 0.3 µM
# [13] = second compound 1 µM, first compound 0.00949 µM
# [14] = second compound 1 µM, first compound 0.03 µM
# [15] = second compound 1 µM, first compound 0.0949 µM
# [16] = second compound 1 µM, first compound 0.3 µM
# [17] = second compound 3.16 µM, first compound 0.00949 µM
# [18] = second compound 3.16 µM, first compound 0.03 µM
# [19] = second compound 3.16 µM, first compound 0.0949 µM
# [20] = second compound 3.16 µM, first compound 0.3 µM
# [21] = second compound 10 µM, first compound 0.00949 µM
# [22] = second compound 10 µM, first compound 0.03 µM
# [23] = second compound 10 µM, first compound 0.0949 µM
# [24] = second compound 10 µM, first compound 0.3 µM
# 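Note: spheroids exposed to agents for seven days before readout.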
# 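Throughout, for viability, T/C: 100% = DMSO vehicle control viability.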
compound,measurement,setting,value
C=CC(=O)Nc1cc(Nc2nccc(-c3cn(C)c4ccccc34)n2)c(OC)cc1N(C)CCN(C)C + CN1CCN(c2cc(C(=O)Nc3cc4cc(-c5cnn(C)c5)ccc4cn3)ccn2)CC1,IC50,second compound 0.0316 µM,> 300 nM
same,IC50,second compound 0.1 µM,102 nM
same,IC50,second compound 0.316 µM,< 0.949 nM
same,IC50,second compound 1 µM,< 0.949 nM
same,IC50,second compound 3.16 µM,< 0.949 nM
same,IC50,second compound 10 µM,< 0.949 nM
same,"viability, T/C","second compound 0.0316 µM, first compound 0.000949 µM",98.5%
same,"viability, T/C","second compound 0.0316 µM, first compound 0.003 µM",112%
same,"viability, T/C",[1],94.6%
same,"viability, T/C",[2],89.1%
same,"viability, T/C",[3],98.4%
same,"viability, T/C",[4],59.1%
same,"viability, T/C","second compound 0.1 µM, first compound 0.000949 µM",56.9%
same,"viability, T/C","second compound 0.1 µM, first compound 0.003 µM",68.1%
same,"viability, T/C",[5],70.1%
same,"viability, T/C",[6],57%
same,"viability, T/C",[7],52.9%
same,"viability, T/C",[8],19.4%
same,"viability, T/C","second compound 0.316 µM, first compound 0.000949 µM",35.5%
same,"viability, T/C","second compound 0.316 µM, first compound 0.003 µM",44.2%
same,"viability, T/C",[9],38.6%
same,"viability, T/C",[10],39%
same,"viability, T/C",[11],32.9%
same,"viability, T/C",[12],14.3%
same,"viability, T/C","second compound 1 µM, first compound 0.000949 µM",5.92%
same,"viability, T/C","second compound 1 µM, first compound 0.003 µM",6.94%
same,"viability, T/C",[13],10.9%
same,"viability, T/C",[14],5.22%
same,"viability, T/C",[15],7.08%
same,"viability, T/C",[16],5.76%
same,"viability, T/C","second compound 3.16 µM, first compound 0.000949 µM",5.99%
same,"viability, T/C","second compound 3.16 µM, first compound 0.003 µM",7.83%
same,"viability, T/C",[17],7.06%
same,"viability, T/C",[18],9.16%
same,"viability, T/C",[19],6.05%
same,"viability, T/C",[20],4.8%
same,"viability, T/C","second compound 10 µM, first compound 0.000949 µM",2.23%
same,"viability, T/C","second compound 10 µM, first compound 0.003 µM",2.23%
same,"viability, T/C",[21],4.31%
same,"viability, T/C",[22],2.44%
same,"viability, T/C",[23],2.36%
same,"viability, T/C",[24],4.04%
NC(=O)C(=Cn1cnc(-c2cc(C(F)(F)F)cc(C(F)(F)F)c2)n1)c1cncnc1 + CN1CCN(c2cc(C(=O)Nc3cc4cc(-c5cnn(C)c5)ccc4cn3)ccn2)CC1,IC50,second compound 0.0316 µM,681 nM
same,IC50,second compound 0.1 µM,28.5 nM
same,IC50,second compound 0.316 µM,< 9.49 nM
same,IC50,second compound 1 µM,< 9.49 nM
same,IC50,second compound 3.16 µM,< 9.49 nM
same,IC50,second compound 10 µM,< 9.49 nM
same,"viability, T/C",[1],79.3%
same,"viability, T/C",[2],67.5%
same,"viability, T/C",[3],76%
same,"viability, T/C",[4],76.1%
same,"viability, T/C","second compound 0.0316 µM, first compound 0.949 µM",38.1%
same,"viability, T/C","second compound 0.0316 µM, first compound 3 µM",41.8%
same,"viability, T/C",[5],47.6%
same,"viability, T/C",[6],53%
same,"viability, T/C",[7],47.4%
same,"viability, T/C",[8],35%
same,"viability, T/C","second compound 0.1 µM, first compound 0.949 µM",22.3%
same,"viability, T/C","second compound 0.1 µM, first compound 3 µM",13.7%
same,"viability, T/C",[9],31.6%
same,"viability, T/C",[10],22.2%
same,"viability, T/C",[11],8.26%
same,"viability, T/C",[12],6.76%
same,"viability, T/C","second compound 0.316 µM, first compound 0.949 µM",4.81%
same,"viability, T/C","second compound 0.316 µM, first compound 3 µM",2.61%
same,"viability, T/C",[13],8.6%
same,"viability, T/C",[14],7.83%
same,"viability, T/C",[15],5.77%
same,"viability, T/C",[16],4.21%
same,"viability, T/C","second compound 1 µM, first compound 0.949 µM",5.37%
same,"viability, T/C","second compound 1 µM, first compound 3 µM",1.7%
same,"viability, T/C",[17],6.02%
same,"viability, T/C",[18],7.42%
same,"viability, T/C",[19],10.8%
same,"viability, T/C",[20],16.6%
same,"viability, T/C","second compound 3.16 µM, first compound 0.949 µM",4.54%
same,"viability, T/C","second compound 3.16 µM, first compound 3 µM",1.65%
same,"viability, T/C",[21],4.54%
same,"viability, T/C",[22],4.5%
same,"viability, T/C",[23],6.08%
same,"viability, T/C",[24],5.71%
same,"viability, T/C","second compound 10 µM, first compound 0.949 µM",1.68%
same,"viability, T/C","second compound 10 µM, first compound 3 µM",1.21%
Nc1ccccc1NC(=O)c1ccc(CNC(=O)OCc2cccnc2)cc1 + CN1CCN(c2cc(C(=O)Nc3cc4cc(-c5cnn(C)c5)ccc4cn3)ccn2)CC1,IC50,second compound 0.0316 µM,7610 nM
same,IC50,second compound 0.1 µM,4780 nM
same,IC50,second compound 0.316 µM,< 31.6 nM
same,IC50,second compound 1 µM,< 31.6 nM
same,IC50,second compound 3.16 µM,< 31.6 nM
same,IC50,second compound 10 µM,< 31.6 nM
same,"viability, T/C","second compound 0.0316 µM, first compound 0.0316 µM",93.5%
same,"viability, T/C","second compound 0.0316 µM, first compound 0.1 µM",103%
same,"viability, T/C","second compound 0.0316 µM, first compound 0.316 µM",98.4%
same,"viability, T/C","second compound 0.0316 µM, first compound 1 µM",162%
same,"viability, T/C","second compound 0.0316 µM, first compound 3.16 µM",153%
same,"viability, T/C","second compound 0.0316 µM, first compound 10 µM",27.7%
same,"viability, T/C","second compound 0.1 µM, first compound 0.0316 µM",54.7%
same,"viability, T/C","second compound 0.1 µM, first compound 0.1 µM",63%
same,"viability, T/C","second compound 0.1 µM, first compound 0.316 µM",76.5%
same,"viability, T/C","second compound 0.1 µM, first compound 1 µM",90.9%
same,"viability, T/C","second compound 0.1 µM, first compound 3.16 µM",91.7%
same,"viability, T/C","second compound 0.1 µM, first compound 10 µM",4.63%
same,"viability, T/C","second compound 0.316 µM, first compound 0.0316 µM",40.1%
same,"viability, T/C","second compound 0.316 µM, first compound 0.1 µM",30.8%
same,"viability, T/C","second compound 0.316 µM, first compound 0.316 µM",37.5%
same,"viability, T/C","second compound 0.316 µM, first compound 1 µM",30.2%
same,"viability, T/C","second compound 0.316 µM, first compound 3.16 µM",7.28%
same,"viability, T/C","second compound 0.316 µM, first compound 10 µM",4.48%
same,"viability, T/C","second compound 1 µM, first compound 0.0316 µM",12.7%
same,"viability, T/C","second compound 1 µM, first compound 0.1 µM",7.04%
same,"viability, T/C","second compound 1 µM, first compound 0.316 µM",7.87%
same,"viability, T/C","second compound 1 µM, first compound 1 µM",6.5%
same,"viability, T/C","second compound 1 µM, first compound 3.16 µM",7%
same,"viability, T/C","second compound 1 µM, first compound 10 µM",7.23%
same,"viability, T/C","second compound 3.16 µM, first compound 0.0316 µM",7.85%
same,"viability, T/C","second compound 3.16 µM, first compound 0.1 µM",3.97%
same,"viability, T/C","second compound 3.16 µM, first compound 0.316 µM",7.25%
same,"viability, T/C","second compound 3.16 µM, first compound 1 µM",5.7%
same,"viability, T/C","second compound 3.16 µM, first compound 3.16 µM",8.72%
same,"viability, T/C","second compound 3.16 µM, first compound 10 µM",6.19%
same,"viability, T/C","second compound 10 µM, first compound 0.0316 µM",4.78%
same,"viability, T/C","second compound 10 µM, first compound 0.1 µM",5.48%
same,"viability, T/C","second compound 10 µM, first compound 0.316 µM",5.47%
same,"viability, T/C","second compound 10 µM, first compound 1 µM",5.41%
same,"viability, T/C","second compound 10 µM, first compound 3.16 µM",10%
same,"viability, T/C","second compound 10 µM, first compound 10 µM",1.39%
